25 compounds from the Kinase Knowledgebase extract (Sharma et al. 2016) can be followed below.

Assay [1] concerns the target PIK3CD (Human) (UniProt O00329). Nature of the assay: Assessment of PIK3CD Kinase Activity.
Assay [2] has the same target. Nature of the assay: Assessment of PIK3CD Kinase Activity in RAJI Cells.
In the next assay the target is PIK3CB (Human) (UniProt P42338). Nature of the assay: Assessment of PIK3CB Kinase Activity.
In another assay the target is PIK3CG (human) (UniProt P48736). The assay can be described thus: Assessment of PIK3CG Kinase Activity.
Assay [3] has as its target PIK3CA (human) (UniProt P42336). The assay can be described thus: Assessment of PIK3CA Kinase Activity in SKOV-3 Cells.
For assay [4] the target is unchanged. Nature of the assay: Assessment of PIK3CA Kinase Activity.

Each structure is given as a SMILES string.

PIK3CA (human), sequence (P42336 whole entry, looked up): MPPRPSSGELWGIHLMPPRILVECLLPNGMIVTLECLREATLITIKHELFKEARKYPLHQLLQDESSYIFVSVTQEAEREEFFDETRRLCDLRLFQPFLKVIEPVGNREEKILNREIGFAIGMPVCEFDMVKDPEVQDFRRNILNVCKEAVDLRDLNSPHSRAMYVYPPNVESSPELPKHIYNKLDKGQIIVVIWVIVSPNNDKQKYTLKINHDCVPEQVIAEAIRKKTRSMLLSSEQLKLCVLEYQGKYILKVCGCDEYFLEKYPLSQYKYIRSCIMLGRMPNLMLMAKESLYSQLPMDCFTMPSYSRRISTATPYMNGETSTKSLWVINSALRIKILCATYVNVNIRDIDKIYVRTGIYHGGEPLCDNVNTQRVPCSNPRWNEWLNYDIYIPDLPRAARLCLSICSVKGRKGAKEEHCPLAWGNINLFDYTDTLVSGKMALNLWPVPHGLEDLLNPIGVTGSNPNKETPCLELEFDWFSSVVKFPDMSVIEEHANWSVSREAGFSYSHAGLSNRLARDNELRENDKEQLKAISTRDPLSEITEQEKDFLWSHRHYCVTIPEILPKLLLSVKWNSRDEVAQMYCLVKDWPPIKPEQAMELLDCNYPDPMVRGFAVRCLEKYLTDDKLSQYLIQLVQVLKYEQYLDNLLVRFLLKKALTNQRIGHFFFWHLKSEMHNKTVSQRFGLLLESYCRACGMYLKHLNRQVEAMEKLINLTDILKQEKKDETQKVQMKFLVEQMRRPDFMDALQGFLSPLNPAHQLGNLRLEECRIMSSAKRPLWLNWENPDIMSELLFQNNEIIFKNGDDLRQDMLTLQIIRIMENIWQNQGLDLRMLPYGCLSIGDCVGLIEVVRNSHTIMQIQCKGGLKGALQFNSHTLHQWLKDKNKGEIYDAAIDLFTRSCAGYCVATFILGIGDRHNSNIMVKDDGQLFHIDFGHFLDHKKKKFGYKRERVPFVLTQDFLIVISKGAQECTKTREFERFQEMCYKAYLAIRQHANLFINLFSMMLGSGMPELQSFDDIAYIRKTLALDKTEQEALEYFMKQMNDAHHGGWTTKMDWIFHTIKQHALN
PIK3CB (Human), sequence (P42338 whole entry, looked up): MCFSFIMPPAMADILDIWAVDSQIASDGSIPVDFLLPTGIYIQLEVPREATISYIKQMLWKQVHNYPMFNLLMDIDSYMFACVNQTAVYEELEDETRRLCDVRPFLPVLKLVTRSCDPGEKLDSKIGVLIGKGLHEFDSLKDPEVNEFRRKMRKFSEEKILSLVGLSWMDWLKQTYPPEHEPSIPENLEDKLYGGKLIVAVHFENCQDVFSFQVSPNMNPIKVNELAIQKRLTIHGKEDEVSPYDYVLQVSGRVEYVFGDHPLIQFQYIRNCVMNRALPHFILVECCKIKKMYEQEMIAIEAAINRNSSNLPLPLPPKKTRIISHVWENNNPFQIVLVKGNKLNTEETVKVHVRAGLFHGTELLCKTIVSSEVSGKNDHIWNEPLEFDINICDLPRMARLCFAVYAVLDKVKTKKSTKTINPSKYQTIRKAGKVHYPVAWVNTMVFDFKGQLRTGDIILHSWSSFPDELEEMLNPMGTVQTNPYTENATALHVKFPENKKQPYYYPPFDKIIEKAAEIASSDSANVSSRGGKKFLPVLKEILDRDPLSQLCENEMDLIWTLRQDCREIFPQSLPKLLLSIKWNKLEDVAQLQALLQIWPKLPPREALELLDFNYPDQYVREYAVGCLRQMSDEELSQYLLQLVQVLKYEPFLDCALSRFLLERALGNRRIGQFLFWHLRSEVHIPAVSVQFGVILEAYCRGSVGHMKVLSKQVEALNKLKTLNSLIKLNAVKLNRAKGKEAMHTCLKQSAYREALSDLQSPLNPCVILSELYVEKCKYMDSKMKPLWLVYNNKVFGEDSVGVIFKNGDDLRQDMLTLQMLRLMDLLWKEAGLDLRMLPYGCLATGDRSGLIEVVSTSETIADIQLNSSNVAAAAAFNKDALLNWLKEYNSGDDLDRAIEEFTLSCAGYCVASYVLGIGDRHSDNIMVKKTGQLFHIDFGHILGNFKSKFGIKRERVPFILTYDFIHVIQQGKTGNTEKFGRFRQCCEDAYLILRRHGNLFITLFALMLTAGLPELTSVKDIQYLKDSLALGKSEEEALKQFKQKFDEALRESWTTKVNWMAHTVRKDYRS
PIK3CG (human), sequence (P48736 whole entry, looked up): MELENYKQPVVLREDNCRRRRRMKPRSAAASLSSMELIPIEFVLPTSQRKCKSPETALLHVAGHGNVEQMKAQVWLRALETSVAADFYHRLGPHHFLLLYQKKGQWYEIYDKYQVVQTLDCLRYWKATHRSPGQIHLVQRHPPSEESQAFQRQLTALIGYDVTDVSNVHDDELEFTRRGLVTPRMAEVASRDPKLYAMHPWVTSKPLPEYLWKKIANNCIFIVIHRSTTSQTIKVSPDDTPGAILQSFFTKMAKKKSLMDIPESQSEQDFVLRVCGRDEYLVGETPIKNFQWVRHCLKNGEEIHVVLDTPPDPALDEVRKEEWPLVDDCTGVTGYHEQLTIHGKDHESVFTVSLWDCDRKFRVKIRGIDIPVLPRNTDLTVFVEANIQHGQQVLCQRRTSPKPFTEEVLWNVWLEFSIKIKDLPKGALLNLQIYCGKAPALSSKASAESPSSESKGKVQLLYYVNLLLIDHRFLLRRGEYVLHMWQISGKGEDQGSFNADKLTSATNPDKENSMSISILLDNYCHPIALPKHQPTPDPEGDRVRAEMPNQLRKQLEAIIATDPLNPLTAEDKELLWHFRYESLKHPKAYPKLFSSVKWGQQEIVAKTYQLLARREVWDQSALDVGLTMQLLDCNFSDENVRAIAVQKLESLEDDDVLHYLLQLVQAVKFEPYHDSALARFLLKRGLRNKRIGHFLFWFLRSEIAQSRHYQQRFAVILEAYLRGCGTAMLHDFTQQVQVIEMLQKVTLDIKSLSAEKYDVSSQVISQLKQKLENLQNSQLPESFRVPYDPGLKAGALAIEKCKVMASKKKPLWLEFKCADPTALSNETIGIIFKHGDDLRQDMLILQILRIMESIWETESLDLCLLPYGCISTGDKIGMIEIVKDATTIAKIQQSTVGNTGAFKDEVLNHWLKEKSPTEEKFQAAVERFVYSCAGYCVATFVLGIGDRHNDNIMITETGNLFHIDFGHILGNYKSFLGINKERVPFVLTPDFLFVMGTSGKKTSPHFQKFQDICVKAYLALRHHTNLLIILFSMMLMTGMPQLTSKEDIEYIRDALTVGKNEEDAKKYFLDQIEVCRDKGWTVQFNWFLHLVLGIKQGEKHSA
PIK3CD (Human), sequence (O00329 whole entry, looked up): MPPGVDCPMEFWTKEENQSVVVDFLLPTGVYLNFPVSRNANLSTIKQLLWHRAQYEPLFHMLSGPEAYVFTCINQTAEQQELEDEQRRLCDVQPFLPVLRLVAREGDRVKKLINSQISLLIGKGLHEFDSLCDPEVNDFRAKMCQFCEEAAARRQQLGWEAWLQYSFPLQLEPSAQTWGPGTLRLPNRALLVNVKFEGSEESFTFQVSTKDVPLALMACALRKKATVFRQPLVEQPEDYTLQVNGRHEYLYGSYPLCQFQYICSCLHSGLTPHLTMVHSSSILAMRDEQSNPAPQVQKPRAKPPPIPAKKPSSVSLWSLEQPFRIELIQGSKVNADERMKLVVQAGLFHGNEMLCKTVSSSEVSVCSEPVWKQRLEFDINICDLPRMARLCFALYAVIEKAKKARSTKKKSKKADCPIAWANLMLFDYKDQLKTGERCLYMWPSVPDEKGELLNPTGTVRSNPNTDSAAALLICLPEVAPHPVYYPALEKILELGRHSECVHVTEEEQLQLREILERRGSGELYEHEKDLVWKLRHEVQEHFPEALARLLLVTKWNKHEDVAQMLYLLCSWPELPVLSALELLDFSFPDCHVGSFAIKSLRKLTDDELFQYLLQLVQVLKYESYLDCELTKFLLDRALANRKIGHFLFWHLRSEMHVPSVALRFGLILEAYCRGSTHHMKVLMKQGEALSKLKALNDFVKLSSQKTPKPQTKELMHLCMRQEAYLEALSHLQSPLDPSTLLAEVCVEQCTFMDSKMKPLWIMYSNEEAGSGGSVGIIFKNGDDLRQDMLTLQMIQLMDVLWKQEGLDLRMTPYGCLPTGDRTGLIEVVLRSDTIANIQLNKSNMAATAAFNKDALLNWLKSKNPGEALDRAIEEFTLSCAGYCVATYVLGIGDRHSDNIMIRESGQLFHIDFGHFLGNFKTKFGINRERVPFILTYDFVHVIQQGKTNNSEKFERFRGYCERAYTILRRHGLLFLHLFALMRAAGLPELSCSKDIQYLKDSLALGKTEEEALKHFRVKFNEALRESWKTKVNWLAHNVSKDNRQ

The term IC50 denotes the concentration that gives 50% inhibition. Higher therefore signals lower potency. In the case of `Cc1ncc(-c2cccc3nc([C@H](C)Nc4nc(N)nc5cccnc45)n(-c4ccccc4)c(=O)c23)cn1`, the IC50 against PIK3CD (Human) [1] was less than 100 nM; on PIK3CD (Human) [2] it was less than 100 nM; on PIK3CB (Human) it was more than 10000 nM; against PIK3CG (human), less than 100 nM.

Take `C[C@H](Nc1nc(N)nc2cccnc12)c1nc2cccc(-c3cnn(C)c3)c2c(=O)n1-c1ccccc1`: the IC50 is less than 100 nM on PIK3CD (Human) [1]; less than 100 nM against PIK3CD (Human) [2]; more than 10000 nM against PIK3CB (Human); less than 100 nM at PIK3CG (human); 100 to 1000 nM against PIK3CA (human) [3].

Consider `COc1ncc(-c2cccc3nc([C@H](C)Nc4nc(N)nc5cccnc45)n(-c4ccccc4)c(=O)c23)cn1`, for which the IC50 against PIK3CD (Human) [1] was less than 100 nM; at PIK3CD (Human) [2] it was less than 100 nM; at PIK3CB (Human) it was more than 10000 nM; against PIK3CG (human), less than 100 nM.

Take `C[C@H](Nc1ncnc2[nH]cnc12)c1cc2cccc(C(F)(F)F)c2c(=O)n1-c1cccc(F)c1`: the IC50 against PIK3CD (Human) [1], on PIK3CD (Human) [2] and against PIK3CG (human) was less than 100 nM throughout.

With `CC(C)n1c([C@H](C)Nc2ncnc3cccnc23)cc2cccc(-c3ccc(=O)n(C)c3)c2c1=O`, the IC50 against PIK3CD (Human) [1] is 100 to 1000 nM; against PIK3CD (Human) [2], less than 100 nM.

`C[C@H](Nc1ncnc2cccnc12)c1cc2cccc(-c3cnn(C)c3)c2c(=O)n1-c1ccccc1`: the IC50 at PIK3CD (Human) [1] was less than 100 nM; against PIK3CD (Human) [2], less than 100 nM; against PIK3CB (Human) it was more than 10000 nM; on PIK3CG (human), less than 100 nM.

`C[C@H](Nc1nc(Cl)ns1)c1cc2cccc(Cl)c2c(=O)n1-c1ccccc1`: the IC50 against PIK3CD (Human) [1], on PIK3CB (Human), on PIK3CA (human) [4] and on PIK3CG (human) was more than 10000 nM in each case.

As for `C[C@H](Nc1ncnc2cccnc12)c1cc2cccc(Cl)c2c(=O)n1CCN1CCCC1`, the IC50 was less than 100 nM at PIK3CD (Human) [1], 100 to 1000 nM at PIK3CB (Human), more than 10000 nM against PIK3CA (human) [4] and 100 to 1000 nM against PIK3CG (human).

Consider `C[C@H](Nc1nc(N)nc2cccnc12)c1cc2cccc(Cl)c2c(=O)n1-c1ccccc1`, for which the IC50 at PIK3CD (Human) [1] was less than 100 nM; on PIK3CB (Human), less than 100 nM; against PIK3CA (human) [4], 100 to 1000 nM; against PIK3CG (human), less than 100 nM.

Turning to `C[C@H](Nc1ccnc2ccnn12)c1cc2scc(-c3cnn(C)c3)c2c(=O)n1-c1ccccc1`, the IC50 against PIK3CD (Human) [1] is 100 to 1000 nM; at PIK3CB (Human), more than 10000 nM; against PIK3CA (human) [4] it was more than 10000 nM; on PIK3CG (human), 100 to 1000 nM.

`C[C@H](Nc1ncnc2cc(F)ccc12)c1cc2cccc(Cl)c2c(=O)n1-c1ccccc1`: the IC50 on PIK3CD (Human) [1], against PIK3CB (Human), on PIK3CA (human) [4] and against PIK3CG (human) was more than 10000 nM each time.

`C[C@H](Nc1ncnc(N)c1C#N)c1cc2cccc(C(F)(F)F)c2c(=O)n1-c1ccccc1`: the IC50 at PIK3CD (Human) [1] is less than 100 nM; against PIK3CB (Human), more than 10000 nM; on PIK3CA (human) [4], more than 10000 nM; against PIK3CG (human), less than 100 nM.

Take `C[C@H](Nc1cc(Cl)ncc1C(N)=O)c1cc2cccc(Cl)c2c(=O)n1-c1ccccc1`: the IC50 at PIK3CD (Human) [1] is 100 to 1000 nM; on PIK3CB (Human), more than 10000 nM; at PIK3CA (human) [4], more than 10000 nM; at PIK3CG (human) it was 100 to 1000 nM.

As to `Cc1ncc(-c2cccc3cc([C@H](C)Nc4nc(N)nc5cccnc45)n(-c4ccccc4)c(=O)c23)cn1`, the IC50 against PIK3CD (Human) [1] was less than 100 nM; at PIK3CB (Human), more than 10000 nM; on PIK3CA (human) [4], more than 10000 nM; against PIK3CG (human) it was less than 100 nM.

Regarding `C[C@@H](c1cc2cccc(Cl)c2c(=O)n1-c1ccccc1)n1c(=O)[nH]c2cnc(N)nc21`, the IC50 on PIK3CD (Human) [1], against PIK3CB (Human), against PIK3CA (human) [4] and on PIK3CG (human) was more than 10000 nM each time.

In the case of `COc1ncc(-c2cccc3cc([C@H](C)Nc4nc(O)nc5cccnc45)n(-c4ccccc4)c(=O)c23)cn1`, the IC50 on PIK3CD (Human) [1], against PIK3CB (Human), against PIK3CA (human) [4] and at PIK3CG (human) was more than 10000 nM throughout.

For `C[C@H](Nc1ncnc2cccnc12)c1cc2cccc(C(=O)O)c2c(=O)n1-c1ccccc1`, the IC50 is more than 10000 nM on PIK3CD (Human) [1], more than 10000 nM on PIK3CB (Human), more than 10000 nM at PIK3CA (human) [4] and 100 to 1000 nM on PIK3CG (human).

Take `CCOC(=O)c1cnc(N[C@@H](C)c2cc3cccc(-c4ccnc(OC)c4)c3c(=O)n2-c2ccccc2)nc1N`: the IC50 against PIK3CD (Human) [1], against PIK3CB (Human), against PIK3CA (human) [4] and on PIK3CG (human) was more than 10000 nM in each case.

Regarding `C[C@H](Nc1ncnc2[nH]cc(C#N)c12)c1cc2cccc(C(F)(F)F)c2c(=O)n1-c1ccccc1`, the IC50 against PIK3CD (Human) [1] was less than 100 nM; against PIK3CB (Human) it was 100 to 1000 nM; on PIK3CA (human) [4], more than 10000 nM; against PIK3CG (human), less than 100 nM.

Turning to `C[C@H](Nc1ncnc2cc(F)c(F)cc12)c1cc2cccc(Cl)c2c(=O)n1-c1ccccc1`, the IC50 against PIK3CD (Human) [1], on PIK3CB (Human), on PIK3CA (human) [4] and at PIK3CG (human) was more than 10000 nM throughout.

With `COc1ncc(-c2cccc3cc([C@H](C)Nc4cc(N)nc5ccnn45)n(-c4ccccc4)c(=O)c23)cn1`, the IC50 was less than 100 nM at PIK3CD (Human) [1], more than 10000 nM on PIK3CB (Human), more than 10000 nM at PIK3CA (human) [4] and 100 to 1000 nM on PIK3CG (human).

As to `C[C@H](Nc1ncnc2scnc12)c1cc2cccc(C(F)(F)F)c2c(=O)n1-c1ccccc1`, the IC50 was less than 100 nM at PIK3CD (Human) [1], less than 100 nM against PIK3CB (Human), 100 to 1000 nM against PIK3CA (human) [4] and less than 100 nM against PIK3CG (human).

Regarding `C[C@H](Nc1ccnn2ccnc12)c1cc2cccc(Cl)c2c(=O)n1-c1ccccc1`, the IC50 on PIK3CD (Human) [1] is less than 100 nM; on PIK3CB (Human), less than 100 nM; against PIK3CA (human) [4] it was 100 to 1000 nM; against PIK3CG (human), less than 100 nM.

On to `C[C@H](Nc1ccnn2ccnc12)c1cc2scc(-c3cnn(C)c3)c2c(=O)n1-c1ccccc1`, for which the IC50 at PIK3CD (Human) [1] was 100 to 1000 nM; against PIK3CB (Human) it was more than 10000 nM; against PIK3CA (human) [4], more than 10000 nM; at PIK3CG (human), 100 to 1000 nM.

As for `C[C@H](Nc1ncnc2cnccc12)c1cc2cccc(Cl)c2c(=O)n1-c1ccccc1`, the IC50 at PIK3CD (Human) [1], on PIK3CB (Human), on PIK3CA (human) [4] and against PIK3CG (human) was more than 10000 nM in each case.
